Series [1] can be described thus: Metabolite profiling in human plasma, urine and feces pools (HPLC-AMS). It counts as in vivo. The following applies: for Feces % of dose: based on geometric mean of total cumulative excretion in feces; for Urine % of dose: based on geometric mean of total cumulative excretion in urine. As to the method:
For each subject, plasma samples were pooled based on the Hamilton pooling scheme ([Hamilton et al., 1981]) with samples collected within 72 h. Thereafter, a single cross-subject plasma pool was prepared by using a constant proportion of each individual Hamilton pool. Proportional pooling was applied for urine and homogenized feces samples. […] A single cross-subject pool for both excreta was prepared by taking a sample representing 10% of each individual pool to obtain a representative pool of at least 95% of the total excreted ^14C across all subjects.
Pooled plasma and feces samples were further purified by liquid-liquid extraction prior to HPLC analysis. The pooled plasma sample (4,000 μl) was extracted with 1200 μl acetonitrile:methanol (80:20, v/v) (Thermo Fisher Scientific, Waltham, MA, United States). After mixing for 1 min, the sample was centrifuged for 10 min at 3,750 rpm and 10°C […]. Thereafter, the supernatant was collected, dried, and aliquoted for analysis. These extraction steps were repeated two additional times with the remaining pellet to obtain a high extraction recovery. The homogenized feces sample (200 mg) was extracted by addition of 800 μl acetonitrile, followed by centrifugation for 5 min at 3,750 rpm and 4°C. The supernatant was collected and dried with nitrogen at 40°C. The remaining pellet was extracted by addition of 800 μl acetonitrile:water (1:1, v/v) followed by a drying process with nitrogen. The dried extract was reconstituted with acetonitrile:mobile phase A (see Analytical Method for Metabolite Profiling) (1:9, v/v) and vortexed for 5 min. […] Urine samples were directly used for analysis.
Metabolite profiles were generated by using HPLC together with an AMS detector. The plasma extract (120 μl), the feces extract (10 μl), and urine (100 μl) were injected onto the HPLC (Agilent 1290, Agilent Technologies, Santa Clara, CA, United States) equipped with a binary pump G4220A (Agilent Technologies), an autosampler G4226A (Agilent Technologies), a column compartment G1316C (Agilent Technologies), and a fraction collector G1364C (Agilent Technologies). […] Mobile phases consisted of 20 mM ammonium formate adjusted to pH 9.5 with ammonium hydroxide (phase A) and a 7:2:1 (v/v/v) mixture of acetonitrile, methanol, and mobile phase A (phase B). […] Following HPLC analysis, pools of HPLC fractions were prepared by taking equivalent portions of consecutive individual fractions for analysis with AMS (SSAMS-250, National Electrostatics Corp., Middleton, WI, United States). The amounts of ^14C in each fraction and fraction pool were summed and compared to the solution injected onto the HPLC for the determination of profile recovery.

For series [2], the system named is carboxylesterases (i.e., CES1b, CES1c, and CES2). In words: Exploratory in vitro studies on enzymes catalyzing formation of M23. It counts as in vitro ADME. Particulars: Idorsia data on file.
A further series concerns CYP2C19. In words: Incubation with recombinant human CYP2C19. Type of series: in vitro ADME. Particulars: intersystem extrapolation scaling approach; 100 pmol/ml CYP, 10 μM, 60 min. The protocol: (§1) ^14C-ACT-1004-1239 was incubated for 60 min with 100 pmol/ml of the respective recombinant CYP (CYP1A1, CYP1A2, CYP2B6, CYP2C8, CYP2C9, CYP2C19, CYP2D6, or CYP3A4) in 100 mM phosphate buffer (pH 7.4) at a final ^14C-ACT-1004-1239 concentration of 10 μM. The incubation was initiated by addition of the pre-warmed NADPH-regenerating system and terminated by the addition of one volume equivalent acetonitrile. The NADPH-regenerating system was prepared as described in Incubation With HLMs and CYP-Specific Inhibitors. The organic solvent concentration in all incubations was kept at 0.5% (v/v). Control incubations in the absence of the NADPH-regenerating system or CYP, as well as incubations with control bactosomes, were performed in parallel under otherwise identical conditions. The samples were centrifuged for 10 min at 20,800 g and 10°C to obtain the supernatant which was used for HPLC analysis (as described in Analytical Method for Metabolite Profiling). The resulting data were further used to determine their contribution to the metabolic clearance in vitro by applying the intersystem extrapolation scaling approach as described by [Chen et al. (2011)]. […]

The next series has as its system CYP2C8. Kind of series: Incubation with recombinant human CYP2C8. It counts as in vitro ADME. The following applies: intersystem extrapolation scaling approach; 100 pmol/ml CYP, 10 μM, 60 min. As to the method: as §1
The next series deals with CYP3A4. In words: Incubation with recombinant human CYP3A4. It counts as in vitro ADME. The following applies: intersystem extrapolation scaling approach; 100 pmol/ml CYP, 10 μM, 60 min. As to the method:
as §1

Details of series [3]: method as in Richard-Bildstein et al., 2020. Particulars: ref Richard-Bildstein et al., 2020; cited from earlier work.
Series [4] in a line: Pharmacokinetics of total 14C-radioactivity in human plasma (microtracer, AMS). It counts as in vivo. The following applies: single oral 9.2 μg 14C-ACT-1004-1239 + 100 mg ACT-1004-1239.
The conditions of series [5]: ref Huynh et al., cited from earlier work.
Series [6] in a line: Quantification of M38 in pooled human plasma using a synthesized reference. The following applies: non-radiolabelled metabolite. Type of series: in vivo.
The test system of series [7] is human liver microsomes (HLM). In words: Incubation with HLMs and CYP-specific inhibitors. It counts as in vitro ADME. The following applies: 10 μM 14C-ACT-1004-1239, 1 μM ketoconazole (CYP3A4 inhibitor).

`O=C(O)c1cc(-c2ccc(F)cc2F)on1` [M23]: in [1] (cross-subject plasma pool, samples within 72 h), the “Plasma % in sample (relative abundance, % of total radioactivity)” value came out at 21.1%. The “involvement of carboxylesterases in formation of M23” value in [2] is given as “excluded the involvement of carboxylesterases”.

With `O=C(N[C@H]1CCN(CC2CC2)C[C@@H]1C(=O)NC1(c2ncccn2)CC1)c1cc(-c2ccc(F)cc2F)on1` [ACT-1004-1239], the “contribution of CYP2C19 to M1 formation” value in the series with CYP2C19 was 5.2%. Further, the “contribution of CYP2C8 to M1 formation” value in the series on CYP2C8 is given as 1.2%. For the same compound, the “contribution of CYP3A4 to total M1 formation (total turnover in vitro)” value with CYP3A4 is 94%. In addition, in series [1], the “Feces % of dose” value worked out at 5.2% and the “Urine % of dose” value is given as 10.1%. Besides, in series [3], the absorption in rats entry is listed as “rapidly absorbed” and the “volume of distribution in rats” value is on record as “in excess of total body water”. The “plasma concentration of 14C-drug-related material after 72 h post-dose” value in [4] is listed as “below the limit of quantification”. For the same compound, in [5] (healthy humans, dose range 1–200 mg, single and multiple dose, 2021b, Huynh et al., 2021a), the “safety and tolerability profile” value is “favorable safety and tolerability profiles”. The “time to reach maximum plasma concentration [tmax]” value in [5] (male and female subjects, oral 1-200 mg, 2021a, Huynh et al., 2021b) is 1 to 3 h. Besides, in series [5] (multiple-dose, 2021a), the “accumulation at steady state” value is “almost no accumulation” and the “time to steady-state conditions of systemic exposure” value was ≤ 3 days. In [5] (2021b), the absolute bioavailability is on record as 53%, the “effect of food on the PK” value is recorded as “no relevant effect” and the volume of distribution is reported as 183 L.

As for `N[C@H]1CCN(CC2CC2)C[C@@H]1C(=O)NC1(c2ncccn2)CC1` [M38], in series [6], the “presence in pooled human plasma” value is reported as “negligible”.

With `CC(=O)N1CCN(c2ccc(OCC3COC(Cn4ccnc4)(c4ccc(Cl)cc4Cl)O3)cc2)CC1` (stereo not shown) [ketoconazole], the “formation of M1 in presence of inhibitor” value in [7] was “completely abolished”.

`O=C(N[C@H]1CCNC[C@@H]1C(=O)NC1(c2ncccn2)CC1)c1cc(-c2ccc(F)cc2F)on1` [M1]: in [1] (14C-radioactive dose excreted), the “Urine + feces % of dose” value is given as 25.1%. For the same compound, in series [1], the “Feces % of dose” value is on record as 23.7% and the “Urine % of dose” value worked out at 1.4%.

(Values after PMC9006992 (Frontiers in Pharmacology, 2022).)
